Eight compounds from patent publication US20120022121A1, “INDOLES, DERIVATIVES AND ANALOGS THEREOF AND USES THEREFOR” (priority 2007, published 2012) can be followed below.

One data set concerns CV-1. Put plainly: Cell viability SRB assay, 96 h. The class given is cell-based. The note with it: Cercopithecidae, CV-1 fibroblast cell line. How it is done: (§1) Cells were plated in 96-well plates at a density of 800-5,000 cells/well, depending on the cell line, in their required growth media containing 10% fetal bovine serum. Preliminary studies were performed with each cell line using a variety of cell densities and incubation times to determine appropriate seeding densities. The compound of interest was dissolved in DMSO, diluted in cell culture medium (final DMSO concentration was less than 0.5% v/v), and added to quadruplicate wells at final concentrations ranging from 0 to 100 μM. Control wells to which only drug-free vehicle was added were included as negative controls.
(§2) Cells were incubated for 96 hour at 37° C. in a humidified atmosphere containing 5% carbon dioxide.

Another data set concerns LNCaP. Put plainly: Cell viability SRB assay, 96 h. The class given is cell-based. The following applies: Homo sapiens. How it is done: (§3) Cell viability (LNCaP, PC-3 prostate, DU145, PPC-1, and TSU-Pr1 prostate cancer cell lines, HT-29 colon cancer cell line, and MCF-7 breast cancer cell line) was quantitated using the sulforhodamine B (SRB) assay after 96 h coincubation with different concentrations of compound in 96-well plates. Cell viability of leukemia cells (K562 and doxorubicin-resistant K562/Dox) was quantitated by MTT assay after 96 h coincubation with different concentrations of compound in 96-well plates. Drug-induced apoptosis was determined by anti-histone ELISA assay and DNA laddering. Cell cycle progression was assessed by propidium iodide staining and fluorescence-activated cell sorting (FACS) analysis. In vitro tubulin polymerization assay was determined by CytoDYNAMIX ScreenTM3 (CDS-03) kits according to the manufacturer's instructions. Anti-apoptosis protein (Bcl-2 and Bcl-xl) and pro-apoptosis protein (Bax) were examined in LNCaP and PC-3 after 24 h incubation with different concentrations of compound 13 by Western blot assay. In vivo PC-3 xenograft studies were conducted by i.v. dosing of 50 mg/kg, 100 mg/kg and 150 mg/kg for 2 weeks.
as §1, §2
(§4) Cells were stained with SRB solution. […] WinNonlin was provided by a Pharsight Academic License to The Ohio State University.

In the next data set the test system is PPC-1. Put plainly: Cell viability SRB assay, 96 h. The following applies: Homo sapiens, PPC-1, 96 h. The class given is cell-based. On the procedure: as §3, §1, §2, §4
In a further data set the test system is PC-3. Put plainly: Cell viability SRB assay, 96 h. The class given is cell-based. The following applies: Homo sapiens, PC-3, 96 h. How it is done:
as §3, §1, §2, §4

The subject of the next data set is TSU. Put plainly: Cell viability SRB assay, 96 h. The class given is cell-based. The note with it: Homo sapiens, TSU (TSU-Pr1). How it is done:
as §3, §1, §2, §4

The next data set concerns DU-145. Put plainly: Cell viability SRB assay, 96 h. The class given is cell-based. The note with it: Homo sapiens, DU-145, 96 h. How it is done: as §3, §1, §2, §4
Another data set has as its system HT-29. Put plainly: Cell viability SRB assay, 96 h. The class given is cell-based. The following applies: Homo sapiens, HT-29, 96 h. How it is done: as §3, §1, §2, §4
Another data set has as its system MCF-7. Put plainly: Cell viability SRB assay, 96 h. The class given is cell-based. The note with it: Homo sapiens, MCF7; MCF-7, 96 h. On the procedure: as §3, §1, §2, §4
A short description of the next data set: Rotarod performance. The class given is in vivo, ICR mice. The following applies: 0.5 mg/kg i.p. q2d. How it is done: The training and rotarod test was conducted as described previously. Briefly, during the training phase for 2 consecutive days (3 trials/day), mice (10 mice/group) were trained to run in a rotarod apparatus without falling at a constant speed (12 rpm) for a maximum of 2 min. For the rotarod performance test, duration of each trial was less than 5 min. […] Tests were performed for 2 weeks (2 days/week). The animals were tested in three trials per day with an intertrial interval of 30 min. Animal performance was recorded as the average elapsed time for the mice to fall off.

Each structure is given as a SMILES string.

`O=S(=O)(c1ccccc1)n1c(-c2cccc(C(O)c3cc4ccccc4n3S(=O)(=O)c3ccccc3)c2)cc2ccccc21` (centres unmarked) [Compound 8, (1-benzenesulfonyl-1H-indol-2-yl)-[3-(1-benzenesulfonyl-1H-indol-2-yl)phenyl]methanol] displayed a melting point of 81 to 83 °C. The same compound gave an IC50 with CV-1 of more than 100 µM. The IC50 in the data set on LNCaP was more than 100 µM. Besides, the midpoint of inhibition in the data set on PPC-1, the IC50, lay at 30 µM. In addition, the IC50 with PC-3 was more than 100 µM. Moreover, in the data set on TSU, the IC50 is more than 100 µM. The compound further yielded an IC50 in the data set with DU-145 of more than 100 µM.

Take `c1cc(Cc2cc3ccccc3[nH]2)cc(-c2cc3ccccc3[nH]2)c1` [Compound 10, (1H-Indol-2-yl)-[3-(1H-indol-2-yl)phenyl]methane]: the melting point fell in the range of 193 to 194 °C. For the same compound, in the data set on CV-1, the IC50 is more than 50 µM. Moreover, the IC50 in the data set on LNCaP was more than 50 µM. For the same compound, the concentration for half-maximal inhibition (IC50) with HT-29 is 0.72 µM. Further, in the data set on PPC-1, the IC50 is more than 50 µM. This compound came in with an IC50 with PC-3 of more than 50 µM. This compound gave an IC50 in the data set with TSU of 20 to 50 µM. This compound also gave an IC50 in the data set with DU-145 of 18.4 µM.

`O=C(c1cccc(-c2cc3ccccc3n2S(=O)(=O)c2ccccc2)c1)c1cc2ccccc2n1S(=O)(=O)c1ccccc1` [Compound 12, (1-Benzenesulfonyl-1H-indol-2-yl)-[3-(1-benzenesulfonyl-1H-indol-2-yl)phenyl]methanone] gave a melting point of 189 to 190 °C. Further, the IC50 in the data set with CV-1 is more than 100 µM. In the data set with LNCaP, this compound displayed an IC50 of more than 100 µM. In the data set with PPC-1, the IC50 was more than 100 µM. The IC50 in the data set with PC-3 is more than 100 µM. The compound further had an IC50 with TSU of more than 100 µM. This compound showed an IC50 in the data set with DU-145 of more than 100 µM.

As to `COc1cccc(C(=O)c2cccc(-c3cc4ccccc4[nH]3)c2)c1` [Compound 81, [3-(1H-Indol-2-yl)-phenyl]-(3-methoxy-phenyl)-methanone], the IC50 was determined as 0.047 µM in the data set on LNCaP; 0.1 µM in the data set on HT-29; 0.043 µM in the data set on PPC-1; 0.043 µM in the data set with MCF-7; 0.072 ± 0.013 µM with PC-3; 0.042 µM with TSU. In addition, the midpoint of inhibition with DU-145, the IC50, lay at 0.129 µM.

With `COc1cc(OC)cc(C(=O)c2cccc(-c3cc4ccccc4[nH]3)c2)c1` [Compound 82, (3,5-Dimethoxy-phenyl)-[3-(1H-indol-2-yl)-phenyl]-methanone], the IC50 with LNCaP is 0.082 µM; in the data set with HT-29, 0.092 µM; in the data set with PPC-1, 0.069 µM; in the data set with MCF-7 it was 0.054 µM; in the data set with PC-3 it was 0.075 ± 0.016 µM; with TSU, 0.065 µM. For the same compound, in the data set with DU-145, the IC50 was found to be 0.134 µM.

For the compound `COc1ccc(C(=O)c2cccc(-c3cc4ccccc4[nH]3)c2)cc1OC` [Compound 83, (3,4-Dimethoxy-phenyl)-[3-(1H-indol-2-yl)-phenyl]-methanone], the IC50 in the data set with LNCaP came to 0.051 µM; in the data set on HT-29 it was 0.119 µM; in the data set on PPC-1, 0.04 µM; in the data set with MCF-7, 0.043 µM; in the data set with PC-3, 0.069 ± 0.012 µM; with TSU it was 0.044 µM. In addition, the IC50 in the data set with DU-145 came to 0.131 µM.

`COc1cc(C(=O)c2cccc(-c3cc4cc(F)ccc4[nH]3)c2)cc(OC)c1OC` [Compound 90, [3-(5-Fluoro-1H-indol-2-yl)-phenyl]-(3,4,5-trimethoxy-phenyl)-methanone]: the IC50 in the data set with LNCaP was determined as 0.032 µM; in the data set on PPC-1, 0.028 µM; in the data set with MCF-7, 0.039 µM; in the data set with PC-3, 0.031 ± 0.004 µM; with DU-145, 0.028 µM.

In the case of `CC[C@]1(O)C[C@H]2CN(CCc3c([nH]c4ccccc34)[C@@](C(=O)OC)(c3cc4c(cc3OC)N(C=O)[C@H]3[C@@](O)(C(=O)OC)[C@H](OC(C)=O)[C@]5(CC)C=CCN6CC[C@]43[C@@H]65)C2)C1` [vincristine], in “Rotarod performance” (day 4 to day 14), the rotarod performance result was “impaired performance”. For the same compound, the “mean time on the rotating rod” value in “Rotarod performance” (end of 2 weeks (vehicle 151 s)) is listed as 104 s.
